# The supplement of paper PMC8671470
# Where a name gives a salt, the structure may show the parent alone.
# System: BV-173
# Assay: cell viability (% survival relative to DMSO control); higher = less cytotoxic
# Conditions: drug1 concentration 50 nM; drug2 concentration 5 nM; 72 h
# Experimental: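 8x8 drug-combination matrices (0–5000 nM; rosiglitazone and lestaurtinib 0–1000 nM) were run in BV-173 cells for 72 h with CellTiter-Glo read-out. Survival is normalised to DMSO and 10 µM bortezomib and clipped at 100%.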
row,Compound,cell viability [%]
1,CN(CCOc1ccc(Cc2sc(O)nc2O)cc1)c1ccccn1 [Rosiglitazone] + c1cc(-c2cnn3cc(-c4ccc(OCCN5CCCCC5)cc4)cnc23)ccn1 [Dorsomorphin],> 100

# Same assay, conditions: drug1 concentration 50 nM; drug2 concentration 10 nM; 72 h
row,Compound,cell viability [%]
1,O=C(O)CC[N+](=O)[O-] [3-nitropropionic acid] + CCn1c(=Cc2cccc[n+]2CC)sc(=C2Sc3ccccc3N2C)c1=O [MKT 077],> 100
2,CCn1c(=Cc2cccc[n+]2CC)sc(=C2Sc3ccccc3N2C)c1=O [MKT 077] + CN(C)CCNC(=O)c1cccn2c(=O)c3cc4ccccc4cc3nc12 [Bmh-21],> 100
3,CN(CCOc1ccc(Cc2sc(O)nc2O)cc1)c1ccccn1 [Rosiglitazone] + CC(C)(Cc1ccccc1)NCC(O)c1ccc(O)c(NS(C)(=O)=O)c1 [Zinterol hydrochloride],> 100
4,CN(CCOc1ccc(Cc2sc(O)nc2O)cc1)c1ccccn1 [Rosiglitazone] + c1cc(-c2cnn3cc(-c4ccc(OCCN5CCCCC5)cc4)cnc23)ccn1 [Dorsomorphin],97.8

# Same assay, conditions: drug1 concentration 50 nM; drug2 concentration 50 nM; 72 h
row,Compound,cell viability [%]
1,O=C(O)CC[N+](=O)[O-] [3-nitropropionic acid] + CCn1c(=Cc2cccc[n+]2CC)sc(=C2Sc3ccccc3N2C)c1=O [MKT 077],> 100
2,CCn1c(=Cc2cccc[n+]2CC)sc(=C2Sc3ccccc3N2C)c1=O [MKT 077] + CN(C)CCNC(=O)c1cccn2c(=O)c3cc4ccccc4cc3nc12 [Bmh-21],86
3,CN(CCOc1ccc(Cc2sc(O)nc2O)cc1)c1ccccn1 [Rosiglitazone] + CC(C)(Cc1ccccc1)NCC(O)c1ccc(O)c(NS(C)(=O)=O)c1 [Zinterol hydrochloride],> 100
4,CN(CCOc1ccc(Cc2sc(O)nc2O)cc1)c1ccccn1 [Rosiglitazone] + c1cc(-c2cnn3cc(-c4ccc(OCCN5CCCCC5)cc4)cnc23)ccn1 [Dorsomorphin],> 100

# Same assay, conditions: drug1 concentration 50 nM; drug2 concentration 100 nM; 72 h
row,Compound,cell viability [%]
1,O=C(O)CC[N+](=O)[O-] [3-nitropropionic acid] + CCn1c(=Cc2cccc[n+]2CC)sc(=C2Sc3ccccc3N2C)c1=O [MKT 077],> 100
2,CCn1c(=Cc2cccc[n+]2CC)sc(=C2Sc3ccccc3N2C)c1=O [MKT 077] + CN(C)CCNC(=O)c1cccn2c(=O)c3cc4ccccc4cc3nc12 [Bmh-21],94.6
3,CN(CCOc1ccc(Cc2sc(O)nc2O)cc1)c1ccccn1 [Rosiglitazone] + CC(C)(Cc1ccccc1)NCC(O)c1ccc(O)c(NS(C)(=O)=O)c1 [Zinterol hydrochloride],> 100
4,CN(CCOc1ccc(Cc2sc(O)nc2O)cc1)c1ccccn1 [Rosiglitazone] + c1cc(-c2cnn3cc(-c4ccc(OCCN5CCCCC5)cc4)cnc23)ccn1 [Dorsomorphin],77.2

# Same assay, conditions: drug1 concentration 50 nM; drug2 concentration 500 nM; 72 h
row,Compound,cell viability [%]
1,O=C(O)CC[N+](=O)[O-] [3-nitropropionic acid] + CCn1c(=Cc2cccc[n+]2CC)sc(=C2Sc3ccccc3N2C)c1=O [MKT 077],84.2
2,CCn1c(=Cc2cccc[n+]2CC)sc(=C2Sc3ccccc3N2C)c1=O [MKT 077] + CN(C)CCNC(=O)c1cccn2c(=O)c3cc4ccccc4cc3nc12 [Bmh-21],45.4
3,CN(CCOc1ccc(Cc2sc(O)nc2O)cc1)c1ccccn1 [Rosiglitazone] + CC(C)(Cc1ccccc1)NCC(O)c1ccc(O)c(NS(C)(=O)=O)c1 [Zinterol hydrochloride],> 100
4,CN(CCOc1ccc(Cc2sc(O)nc2O)cc1)c1ccccn1 [Rosiglitazone] + c1cc(-c2cnn3cc(-c4ccc(OCCN5CCCCC5)cc4)cnc23)ccn1 [Dorsomorphin],> 100

# Same assay, conditions: drug1 concentration 50 nM; drug2 concentration 1000 nM; 72 h
row,Compound,cell viability [%]
1,O=C(O)CC[N+](=O)[O-] [3-nitropropionic acid] + CCn1c(=Cc2cccc[n+]2CC)sc(=C2Sc3ccccc3N2C)c1=O [MKT 077],> 100
2,CCn1c(=Cc2cccc[n+]2CC)sc(=C2Sc3ccccc3N2C)c1=O [MKT 077] + CN(C)CCNC(=O)c1cccn2c(=O)c3cc4ccccc4cc3nc12 [Bmh-21],1.73
3,CN(CCOc1ccc(Cc2sc(O)nc2O)cc1)c1ccccn1 [Rosiglitazone] + CC(C)(Cc1ccccc1)NCC(O)c1ccc(O)c(NS(C)(=O)=O)c1 [Zinterol hydrochloride],94.1
4,CN(CCOc1ccc(Cc2sc(O)nc2O)cc1)c1ccccn1 [Rosiglitazone] + c1cc(-c2cnn3cc(-c4ccc(OCCN5CCCCC5)cc4)cnc23)ccn1 [Dorsomorphin],> 100

# Same assay, conditions: drug1 concentration 50 nM; drug2 concentration 5000 nM; 72 h
row,Compound,cell viability [%]
1,O=C(O)CC[N+](=O)[O-] [3-nitropropionic acid] + CCn1c(=Cc2cccc[n+]2CC)sc(=C2Sc3ccccc3N2C)c1=O [MKT 077],> 100
2,CCn1c(=Cc2cccc[n+]2CC)sc(=C2Sc3ccccc3N2C)c1=O [MKT 077] + CN(C)CCNC(=O)c1cccn2c(=O)c3cc4ccccc4cc3nc12 [Bmh-21],-0.65
3,CN(CCOc1ccc(Cc2sc(O)nc2O)cc1)c1ccccn1 [Rosiglitazone] + CC(C)(Cc1ccccc1)NCC(O)c1ccc(O)c(NS(C)(=O)=O)c1 [Zinterol hydrochloride],> 100
4,CN(CCOc1ccc(Cc2sc(O)nc2O)cc1)c1ccccn1 [Rosiglitazone] + c1cc(-c2cnn3cc(-c4ccc(OCCN5CCCCC5)cc4)cnc23)ccn1 [Dorsomorphin],93.5

# Same assay, conditions: drug1 concentration 100 nM; drug2 concentration 5 nM; 72 h
row,Compound,cell viability [%]
1,O=C(O)CC[N+](=O)[O-] [3-nitropropionic acid] + CCn1c(=Cc2cccc[n+]2CC)sc(=C2Sc3ccccc3N2C)c1=O [MKT 077],> 100
2,CCn1c(=Cc2cccc[n+]2CC)sc(=C2Sc3ccccc3N2C)c1=O [MKT 077] + CN(C)CCNC(=O)c1cccn2c(=O)c3cc4ccccc4cc3nc12 [Bmh-21],> 100
3,CN(CCOc1ccc(Cc2sc(O)nc2O)cc1)c1ccccn1 [Rosiglitazone] + CC(C)(Cc1ccccc1)NCC(O)c1ccc(O)c(NS(C)(=O)=O)c1 [Zinterol hydrochloride],> 100
4,CN(CCOc1ccc(Cc2sc(O)nc2O)cc1)c1ccccn1 [Rosiglitazone] + c1cc(-c2cnn3cc(-c4ccc(OCCN5CCCCC5)cc4)cnc23)ccn1 [Dorsomorphin],> 100

# Same assay, conditions: drug1 concentration 100 nM; drug2 concentration 10 nM; 72 h
row,Compound,cell viability [%]
1,O=C(O)CC[N+](=O)[O-] [3-nitropropionic acid] + CCn1c(=Cc2cccc[n+]2CC)sc(=C2Sc3ccccc3N2C)c1=O [MKT 077],94.6
2,CCn1c(=Cc2cccc[n+]2CC)sc(=C2Sc3ccccc3N2C)c1=O [MKT 077] + CN(C)CCNC(=O)c1cccn2c(=O)c3cc4ccccc4cc3nc12 [Bmh-21],> 100
3,CN(CCOc1ccc(Cc2sc(O)nc2O)cc1)c1ccccn1 [Rosiglitazone] + CC(C)(Cc1ccccc1)NCC(O)c1ccc(O)c(NS(C)(=O)=O)c1 [Zinterol hydrochloride],> 100
4,CN(CCOc1ccc(Cc2sc(O)nc2O)cc1)c1ccccn1 [Rosiglitazone] + c1cc(-c2cnn3cc(-c4ccc(OCCN5CCCCC5)cc4)cnc23)ccn1 [Dorsomorphin],> 100

# Same assay, conditions: drug1 concentration 100 nM; drug2 concentration 50 nM; 72 h
row,Compound,cell viability [%]
1,O=C(O)CC[N+](=O)[O-] [3-nitropropionic acid] + CCn1c(=Cc2cccc[n+]2CC)sc(=C2Sc3ccccc3N2C)c1=O [MKT 077],> 100
2,CCn1c(=Cc2cccc[n+]2CC)sc(=C2Sc3ccccc3N2C)c1=O [MKT 077] + CN(C)CCNC(=O)c1cccn2c(=O)c3cc4ccccc4cc3nc12 [Bmh-21],90.4
3,CN(CCOc1ccc(Cc2sc(O)nc2O)cc1)c1ccccn1 [Rosiglitazone] + CC(C)(Cc1ccccc1)NCC(O)c1ccc(O)c(NS(C)(=O)=O)c1 [Zinterol hydrochloride],91.5
4,CN(CCOc1ccc(Cc2sc(O)nc2O)cc1)c1ccccn1 [Rosiglitazone] + c1cc(-c2cnn3cc(-c4ccc(OCCN5CCCCC5)cc4)cnc23)ccn1 [Dorsomorphin],> 100
